Results taken from patent US12194014B2, “Platinum-based amphiphile prodrugs” (NANOMED HOLDINGS PTY LTD, priority 2018, dated 2025).
Each block holds one compound with its values, some of them ahead of it.

Key:
[1] = SAXS of neat and hydrated amphiphiles (phase, lattice parameter); format: physicochemical; conditions: for lattice parameter, hydrated / phase, hydrated: excess water
Method: SAXS analyses of the bulk and lyotropic phases of the amphiphiles were performed on a Bruker NanoSTAR laboratory SAXS instrument (Brucker AXS, Kalsruhe, Germany).
(§1) The equilibrated lyotropic phases were placed into a demountable button sample cell. For the analysis of the dispersions, a multi-capillary holder was used. Button cells and capillary holder interchangeably fit into a block setup that was temperature-controlled with a Peltier heater-cooler system. 2D scattering images were radially averaged to conventional 1 D scattering plots and as a function of the q value (Å^−1) where q is the length of the scattering vector which was calculated using the formula q=(4π/λ) sin(θ/2), where λ is the wavelength and θ is the scattering angle.
(§2) Small angle X-ray scattering patterns of emulsions and liposomes display large broad peaks while liquid crystalline phases of highly ordered nanostructured particles such as cubosomes and hexosomes display distinct sharp peaks. The relative positions of the peaks (“spacing”) allows for the elucidation of the symmetry of the structure. The interplanar distance (d) between two reflecting planes may be calculated using the formula d=(2π)/q, where q is the absolute position of the peak. This, in turn allows for the calculation of the lattice parameter (a), the size of the unit cell, to be calculated.

[2] = Mesophase behaviour by polarized optical microscopy (POM); format: physicochemical; conditions: for POM observation on exposure to water: 25° C. and 37° C.; for Appearance of the Lyotropic phase at excess water (25° C.-50° C.): POM, equilibration 1 h
Method: Polarized Optical Microscopy (POM): Samples used for Polarized Optical Microscopy (POM) were prepared by placing a small amount of prodrug amphiphile on a microscope slide and covered with a cover slip. Water was placed on the edges of the cover slip and allowed to flow into the sample by capillary action. The microscope slide was placed in a Linkam PE94 hot stage (Linkam Scientific Instruments Ltd. Surrey, England) and heated at 3° C./min between room temperature and 50° C. […] Images were captured with a Nikon DS-Ri-1 camera. All images were taken at 100× magnification.
The formation of lyotropic mesophases is based on the interaction of the prodrug amphiphile with water. Polarized optical microscopy was used to study the liquid crystalline or crystalline structures of the prodrug amphiphiles. This method was used as a preliminary and qualitative investigation to observe the morphological changes of the amphiphile as well as to predict the structural changes of the mesophases which may form upon hydration with water. For each prodrug amphiphile, a small amount of the neat and dry sample was placed on a microscope slide and covered with a cover slip. Water was placed on the edges of the cover slip to allow to flow into the sample by capillary action. Images were captured at 25° C. before and after the addition of water and at 37° C. after exposure to water. 37° C. was selected due to its physiological relevance. […]

[3] = SAXS / synchrotron SAXS of dispersed nanoparticles; format: physicochemical; conditions: dispersion with PEG stabiliser
Method: as §1, §2
The CP prodrug amphiphiles were hydrated with warm PBS containing 10-30% PEG4K-oleoyl or other steric stabilisers such F108 or F127 and sonicated in a sonicator bath and using a probe sonicator resulting in the lipid emulsion. The nanoparticles were then processed through a polycarbonate membrane (3×400 nm, 3×200 nm and 3×100 nm) using an extruder (Avestin, LipoFast LF-50) in order to ensure homogenous sizing. The CP prodrug-phospholipid/cholesterol nanoparticles were prepared by mixing the CP amphiphiles, DMPC and cholesterol in ethanol, followed by vigorous mixing and gentle evaporation under reduced pressure resulting in a thin film. The thin film was then hydrated with warm PBS containing 10-30% of PEG4K-oleoy solution, sonicated in a sonicator bath and using a probe sonicator resulting in the lipid emulsion. The nanoparticles were then processed through a polycarbonate membrane (3×400, 3×200 nm, 9×100 nm) using an extruder (Avestin, LipoFast LF-50) in order to ensure homogenous sizing between 20-200 nm.

[4] = Reduction kinetics of Pt (IV) prodrug nanoparticles with ascorbic acid (LC-MS); format: in vitro ADME
Method: The reducing agent was applied at concentrations corresponding to those found in the living cells' environment, e.g. 1 mM ascorbic acid or 2 mM glutathione (GSH).
Dispersed nanoparticles of Pt (IV) prodrug amphiphiles were mixed with GSH, ascorbic acid or their combination. The ratios of the reducing agents to platinum prodrugs were 10:1 or 50:1 for ascorbic acid and 20:1 for GSH. The reduction kinetics was analysed by LC-MS via monitoring the peaks related to each prodrug amphiphile. The prodrugs were detected by negative ions optimised for each platinum amphiphile. The reduction kinetics was plotted as the percentage of the area under the peak of Pt (IV)-prodrug compared to the peak before the addition of the reducing agent against the time of incubation. At each time point 10 μl of a sample withdrawn from the reaction solution was injected directly into a Phenomenex C8 150 mm×2 mm 5 μm Luna column (Phenomenex, Australia). A 100% Methanol solution was used as the mobile phase with a flow rate of 0.5 ml/min for 8 minutes. The sample after the column separation was eluted to the ESI source. […] The samples were well maintained at a temperature of 37° C. during the entire measurement by incubation in the temperature-controlled auto-sampler. Data was acquired and processed with Xcalibur Quan chromatography software.

Compound: CC(C)CCCC(C)CCCC(C)CCCC(C)CC(=O)[O][Pt]([NH2])([NH2])([Cl])([Cl])[O]C(=O)CC(C)CCCC(C)CCCC(C)CCCC(C)C (mixture of isomers) [CP-bis (phytanoyl), cis,cis,trans-[PtCl2(NH3)2(phytanoyl)2]]
lattice parameter, neat non-hydrated ([1]; 25° C.): 37.3 ± 0.5 Å
phase, neat non-hydrated ([1]; 25° C.): LC1
lattice parameter, neat non-hydrated ([1]; 37° C.): 37.3 ± 0.5 Å
phase, neat non-hydrated ([1]; 37° C.): LC1
lattice parameter, hydrated ([1]; 25° C.): 37.3 ± 0.5 Å
phase, hydrated ([1]; 25° C.): LC1
lattice parameter, hydrated ([1]; 37° C.): 39.8 ± 0.5 Å
phase, hydrated ([1]; 37° C.): LC1
POM observation on exposure to water [2]: amenable to swelling to some extent
Appearance of the Lyotropic phase at excess water (25° C.-50° C.) [2]: No distinct mesophases

lattice parameter of dispersed nanoparticles [3]: 47.62±0.5 Å
structure of dispersed nanoparticles [3]: multilamellar dispersed nanoparticle
lattice parameter, hydrated ([1]; 25° C.): 46.54 ± 0.5 Å
lattice parameter, hydrated ([1]; 37° C.): 46.33 ± 0.5 Å
lattice parameter, neat non-hydrated ([1]; temperature not given): 46.20 ± 0.5 Å
Compound: CCCCCCCC/C=C\CCCCCCCC(=O)OCCOCCOCCNC(=O)CCC(=O)[O][Pt]([NH2])([NH2])([Cl])([Cl])[O]C(=O)CCC(=O)NCCOCCOCCOC(=O)CCCCCCC/C=C\CCCCCCCC [CP-bis(suc-amino-PEG3-oleoyl), cis,cis,trans-(PtCl2(NH3)2-(succinoyl-triethylene glycolyl-oleoyl)2)]

Compound: CCCCCCCCCCCCCC(=O)OCCOCCOCCNC(=O)CCC(=O)[O][Pt]1([O]C(=O)CCC(=O)NCCOCCOCCOC(=O)CCCCCCCCCCCCC)[O]C(=O)C2(CCC2)C(=O)[O]1.N.N [Carboplatin-bis (suc-PEG3-myristoyl), cis, [Pt (Diamine) (1,1-cyclobutanedicarboxylato) (succinylamide-triethyleneglycol-myristoyl)2]]
Appearance of the Lyotropic phase at excess water (25° C.-50° C.) [2]: Lamellar

Compound: cis, trans [Oxaliplatin-bis (myristoyl), cis, trans [Pt ((1R, 2R)-1,2 cyclohexanediamine-N,N′) (oxalate(2-)O,O′) (myristoyl)2]]
reduction rate compared with carboplatin prodrug ([4]; 1 mM ascorbic acid, 0.1 mM prodrug in DMPC/cholesterol nanoparticles): higher rate up to 3 h compared with carboplatin prodrug

Compound: CCCCC/C=C\C/C=C\CCCCCCCC(=O)[O][Pt]([Cl])([Cl])[O]C(=O)CCCCCCC/C=C\C/C=C\CCCCC.N.N [CP-bis (linoleoyl), cis,cis,trans-[PtCl2(NH3)2(linoleoyl)2]]
lattice parameter, hydrated ([1]; temperature not given): 33.5 ± 0.5 Å
phase, hydrated ([1]; temperature not given): LC1
lattice parameter, neat non-hydrated ([1]; temperature not given): 33.5 ± 0.5 Å
phase, neat non-hydrated ([1]; temperature not given): LC1
POM observation on exposure to water [2]: amenable to swelling to some extent
Appearance of the Lyotropic phase at excess water (25° C.-50° C.) [2]: No distinct mesophases

Compound: CCCCCCCC/C=C\CCCCCCCC(=O)[O][Pt]([NH2])([NH2])([Cl])([Cl])[O]C(=O)CCCCCCC/C=C\CCCCCCCC [CP-bis (oleoyl), cis,cis,trans-[PtCl2(NH3)2(oleoyl)2]]
lattice parameter, hydrated ([1]; temperature not given): 34.2 ± 0.5 Å
phase, hydrated ([1]; temperature not given): LC1
lattice parameter, neat non-hydrated ([1]; temperature not given): 34.2 ± 0.5 Å
phase, neat non-hydrated ([1]; temperature not given): LC1
POM observation on exposure to water [2]: amenable to swelling to some extent
Appearance of the Lyotropic phase at excess water (25° C.-50° C.) [2]: No distinct mesophases

Compound: CCCCCCCCCCCCCCCC(=O)[O][Pt]([Cl])([Cl])[O]C(=O)CCCCCCCCCCCCCCC.N.N [CP-bis (palmitoyl), cis,cis,trans-[PtCl2(NH3)2(palmitoyl)2]]
POM observation on exposure to water [2]: amenable to swelling to some extent

Compound: CCCCCCCCCCCC(=O)[O][Pt]([Cl])([Cl])[O]C(=O)CCCCCCCCCCC.N.N [CP-bis (lauroyl), cis,cis,trans-[PtCl2(NH3)2(lauroyl)2]]
POM observation on exposure to water [2]: no observable difference after hydration with water at either 25 or 37 °C

Compound: CCCCCCCCCCCCCC(=O)[O][Pt]1([NH2])([NH2])([O]C(=O)CCCCCCCCCCCCC)[O]C(=O)C2(CCC2)C(=O)[O]1 [Carboplatin-bis (myristoyl), cis, trans [(Diamine) (1,1-cyclobutanedicarboxylato) (bis myristoyl)]]
maximum reduction ([4]; ascorbic acid as reducing agent, up to 24 h): 80%
Appearance of the Lyotropic phase at excess water (25° C.-50° C.) [2]: No distinct mesophase

lattice parameter of dispersed nanoparticles [3]: 44.28±0.5 Å
structure of dispersed nanoparticles [3]: lamellar dispersed nanoparticle
lattice parameter, hydrated ([1]; 25° C.): 43.93 ± 0.5 Å
lattice parameter, neat non-hydrated ([1]; temperature not given): 40.80 ± 0.5 Å
Compound: CCCCCCCC/C=C\CCCCCCCC(=O)OCCOCCOCCOC(=O)[O][Pt]([NH2])([NH2])([Cl])([Cl])[O]C(=O)OCCOCCOCCOC(=O)CCCCCCC/C=C\CCCCCCCC [CP-bis (PEG3-oleoyl), cis,cis,trans-(PtCl2(-triethyleneglycolyl-oleoyl)2)]
POM observation on exposure to water [2]: formation of a lamellar liquid crystalline structures

Compound: CCCCCCCCCCCCCC(=O)[O][Pt]([Cl])([Cl])[O]C(=O)CCCCCCCCCCCCC.N.N [CP-bis (myristoyl), cis,cis,trans-[PtCl2(NH3)2(myristoyl)2]]
POM observation on exposure to water [2]: amenable to swelling to some extent
